We go through four molecules from patent US9389223B2, “Pharmacodynamic assays” (The United States of America, as represented by the …, priority 2004, dated 2016).

Assay [1] concerns acetylated tubulin. The assay can be described thus: Flow cytometry of acetylated tubulin in K562 cells. Particulars: single drug. In kind it is cell-based. An excerpt:
(§1) Leukemia K562 cell line samples containing approximately 5×10^6 to 1×10^7 cells were exposed to either the anti-cancer drug 17-allylaminogeldanamycin (17-AAG) or one of the deacetylase inhibitors MS-275 or trichostatin A (TSA). Some samples received both 17-AAG and TSA or both 17-AAG and MS-275. Control samples received no drug. Administration of the 17-AAG anti-cancer drug led to functional changes in Hsp90 and increased expression of Hsp70. […] TSA is a deacetylase inhibitor that can affect acetylation of numerous proteins. In this study, the effect of TSA on tubulin acetylation was observed using an antibody that specifically binds to acetylated tubulin.
(§2) After treatment with the various drugs, the cells were resuspended in fixation solution (0.4% paraformaldehyde in PBS), incubated at 37° C. for 5-10 minutes and washed with wash buffer. The fixed cells were then resuspended in permeabilization solution (4% Triton X-100 in wash buffer) and incubated at room temperature for 5 minutes. Cells were incubated for 1 hour at room temperature with antibodies to the various pharmacodynamic markers. Several cell samples were incubated with antibodies to several markers at once. […] Fluorescence associated with the cells was detected and quantified by flow cytometry.
A general note: A flow cytometer gives signals particle by particle.

Assay [2] relates to K562 chronic myelogenous leukemia cells. The assay can be described thus: Flow cytometry of apoptosis (activated caspase 3) in K562 cells. In kind it is cell-based, human. Particulars: K562, 1 μM, 48 hours, single drug. Here is the method: (§3) K562 chronic myelogenous leukemia cells were incubated with vehicle alone, 1 μM imatinib (the anticancer drug also known as Gleevec), 1 μM MS-275, or both for 48 hours. The cells were then stained for acetylated lysine as described above and co-stained with antibody to activated caspase 3 as an indicator of cells undergoing apoptosis. Dot plots display acetylated lysine on the x-axis and activated caspase 3 on the y-axis. The multiparameter flow cytometric assay is a powerful tool to monitor pharmacodynamic changes induced by anticancer drugs used in monotherapy or combination therapy protocols. HDAC inhibitors have been reported to promote imatinib-mediated apoptosis in Bcr/Abl+ human myeloid leukemia cells, including imatinib-resistant cells. The effect of MS-275 and imatinib were therefore examined, alone and in combination, on apoptosis in the Bcr/Abl+ cell line K562. Because both MS-275 and imatinib have been reported to induce apoptosis associated with caspase 3 activation, an antibody was used that specifically recognizes activated caspase 3 in a flow assay. This caspase 3 flow assay effectively monitors drug-induced apoptosis. When combined detection of acetylated lysine, this flow assay permitted simultaneous monitoring of apoptosis (caspase 3) and acetylated lysine.

The test system of assay [3] is acetylated lysine. The assay can be described thus: Flow cytometry of acetylated lysine in K562 cells co-stained for activated caspase 3. The assay is classed as cell-based, human. Particulars: K562, 1 μM, 48 hours. Here is the method: as §3
The subject of assay [4] is Hsp70. The assay can be described thus: Flow cytometry of Hsp70 levels in K562 cells. In kind it is cell-based. Particulars: single drug, relative to control cells.
Source text: as §1, §2

As for `CC(/C=C/C(=O)NO)=C\[C@@H](C)C(=O)c1ccc(N(C)C)cc1` [TSA, trichostatin A], the “levels of acetylated tubulin” value in assay [1] is on record as “increased levels of acetylated tubulin”.
Take `Cc1ccc(NC(=O)c2ccc(CN3CCN(C)CC3)cc2)cc1Nc1nccc(-c2cccnc2)n1` [imatinib, 4-[(4-Methyl-1-piperazinyl)methyl]-N-[4-methyl-3-[[4-(3-pyridinyl)-2-yrimidinyl]amino]-phenyl]benzamide methanesulfonate]: the “percent of apoptotic cells (activated caspase 3)” value in assay [2] was “increased the percent of apoptotic cells”. In addition, the “acetylation of the activated caspase 3 positive cell population” value in assay [3] is listed as “lost acetylation”.
For `Nc1ccccc1NC(=O)c1ccc(CNC(=O)OCc2cccnc2)cc1` [MS-275, N-(2-aminophenyl)-4-[N-(pyridin-3-ylmethoxycarbonyl)aminomethyl]benzamide], the “cells with strongly upregulated acetylation” value in assay [3] is “over 50%”.
As for `C=CCNC1=C2C[C@@H](C)C[C@H](OC)[C@H](O)[C@@H](C)/C=C(\C)[C@H](OC(N)=O)[C@@H](OC)/C=C\C=C(/C)C(=O)NC(=CC1=O)C2=O` [17-AAG, 17-allylaminogeldanamycin], the “levels of Hsp70” value in assay [4] is reported as “increased levels of Hsp70”.
